Experimental data reported in patent publication US20220211687A1, “USE OF ARIMOCLOMOL IN THE TREATMENT OF NIEMANN PICK DISEASE” (Orphazyme A/S, priority 2020, published 2022).

Experiments:
[1] = tested on: Niemann-Pick disease type C (NPC); assay: 17-domain (full) NPCCSS score excluding hearing domains, phase 2/3 trial; type: in vivo, human; settings: for Full NPCCSS score (excluding hearing domains), LS mean change from baseline, Arimoclomol vs placebo: Difference: p=0.5726
Excerpt: As would be appreciated by the skilled artisan, progression of NPC in a subject can be tracked by a clinician using the NPC composite clinical severity scale (hereafter “NPCCSS”; see Yanjanin NM et al. Am J Med Genet B Neuropsychiatr Genet, 2010; 153B (1): 132-140, incorporated herein by reference in its entirety). A full “17-domain NPCCSS score” incorporates clinical signs and symptoms in nine major (ambulation, cognition, eye movement, fine motor, hearing, memory, seizures, speech, swallowing) and eight minor (auditory brainstem response, behavior, gelastic cataplexy, hyperreflexia, incontinence, narcolepsy, psychiatric, respiratory problems) domains to determine a score which describes the severity of the subject's NPC progression (a higher score, the more progressed/severe the disease is). An abridged “5-domain NPCCSS score” is also used by clinicians, and incorporates clinical signs and symptoms from the major domains of ambulation, cognition, fine motor, speech and swallowing (see Cortina-Borj a M et al. OrphanetJRare Dis, 2018; 13 (1): 143; 3, incorporated herein by reference in its entirety).
(§1) Routine clinical care was maintained throughout the trial (including administration of miglustat). Each participant was randomized to receive arimoclomol or placebo three times daily. Arimoclomol was administered orally or by feeding tube at 93-372 mg/day based on the patient's body weight up to the estimated equivalence of 372 mg/day for adults (body weight >55 kg) or of 124 mg three times a day.

[2] = Safety evaluation (TEAEs), 12-month double-blind phase 2/3 trial; type: in vivo, human
Description: as §1

[3] = Safety in open-label extension (OLE) of phase 2/3 trial
Description: All OLE patients received arimoclomol; routine clinical care, including miglustat, was maintained.

[4] = tested on: Niemann-Pick disease type C (NPC); assay: NPC clinical database (NPC-cdb) score, phase 2/3 trial; type: in vivo, human; settings: for NPC-cdb score change from baseline to 12 months, Arimoclomol vs placebo: Difference: p=0.3785
Description: Additional secondary endpoints included: change from baseline in scale for assessment and rating of ataxia (SARA) score at 6 and 12 months; change in the nine-hole peg test (9-HPT) result at 6 and 12 months; change in health-related quality of life (HRQoL) as measured by the 5-dimension 3-level EuroQol questionnaire, youth version (EQ-5D-3L Y proxy) at 6 and 12 months; change in individual 5-domain NPCCSS score at month 12; and NPC clinical database (NPC-cdb) score changes from baseline at trial time points. The NPC-cdb score aims to reflect clinical status; an increase in score indicates a reduction in the patient's abilities.

[5] = evidenced by presence in cerebrospinal fluid of treated ALS patients; cited from earlier work
[6] = tested on: Niemann-Pick disease type C (NPC); assay: Clinical Global Impression-Improvement scale (CGI-I) responder analysis, phase 2/3 trial; type: in vivo, human
Description: (§2) During the 12-month treatment phase, efficacy assessments for the primary endpoint, the 5-domain NPCCSS score, and for the non-disease specific Clinical Global Impression—Improvement scale (CGI-I) scores were performed at baseline and after 3, 6, 9, and 12 months of treatment; all other efficacy and biomarker assessments were performed at baseline and after 6 and 12 months of treatment.
CGI-I: the CGI-I was originally developed as a research rating tool to assess psychiatric diseases (see Busner J, Targum SD. The clinical global impressions scale: applying a research tool in clinical practice. Psychiatry (Edgmont). 2007;4:28-37, incorporated herein by reference in its entirety). It provides the clinician's impression of improvement (or worsening) of a person's condition at the current visit compared with baseline on a 7-point scale ranging from 1 (very much improved) to 7 (very much worse). In the present trial, CGI-I was performed after clinical examination and patient interviews; the same investigator was instructed to perform CGI-I assessments throughout the trial for a given patient.

[7] = tested on: Niemann-Pick disease type C (NPC); assay: 5-domain NPCCSS score, 12-month double-blind placebo-controlled phase 2/3 trial; type: in vivo, human; settings: for Responders on 5-domain NPCCSS score at 12 months, %: responder = stable or improved
Description: Patients enrolled in the trial were stratified by use of miglustat at baseline. Patients in both strata were randomized 2:1 to receive arimoclomol or placebo.
as §1, §2
Primary endpoint: The primary endpoint was change from baseline in NPC severity at 12 months as assessed by the 5-domain NPCCSS score, an abbreviated assessment tool originating from the 17 domain NPCCSS score developed by Yanjanin et al., as described herein. The fully validated 5-domain NPCCSS score comprises the domains determined to be most clinically relevant to patients, caregivers, and clinicians: ambulation, cognition, fine motor skills, speech, and swallowing. The total aggregated 5-domain NPCCSS score ranges from 0 to 25, with a higher score indicating more severe clinical impairment.
Subgroup analyses of primary endpoint: NPC is a heterogeneous disease, and patients aged 2 to 18 years present with a large spectrum of disease presentations. The group of children <4 years old includes patients with mild manifestations and patients with aggressive, early fatal disease. As this group is particularly heterogeneous, a subgroup of patients >4 years of age was predefined with the population of study participants.
In the EU, miglustat is indicated for the treatment of progressive neurological manifestations in patients with NPC. However, not all patients are candidates for miglustat treatment, and it is recommended that the benefit of treatment should be evaluated on a regular basis (e.g., every six months). An analysis of the subpopulation of patients receiving miglustat was prespecified to elucidate the effect of arimoclomol in patients on background miglustat treatment. Overall, the subgroups of patients ≥4 years of age, and patients on miglustat treatment, were expected to be more homogeneous with respect to baseline demographics and disease characteristics and therefore more suitable for comparison.
In the first post hoc analysis, subjects with double functional null mutations in NPC1 (NPC1 genotype of Functional Null/Functional Null) were excluded.

[8] = tested on: Niemann-Pick disease type C (NPC)

[O-][n+]1cccc(/C(Cl)=N/OC[C@H](O)CN2CCCCC2)c1 [Arimoclomol, N-[(2R)-2-hydroxy-3-piperidin-1-ylpropoxy]-1-oxidopyridin-1-ium-3-carboximidoyl chloride]
Full NPCCSS score (excluding hearing domains), LS mean change from baseline ([1]; 12 months, arimoclomol group): 1.24
Full NPCCSS score (excluding hearing domains), LS mean change from baseline, Arimoclomol vs placebo: Difference ([1]; 12 months): −1.56
Full NPCCSS score (excluding hearing domains), LS mean change from baseline, Arimoclomol vs placebo: Difference ([1]; 12 months, listed as arimoclomol): numerically in favor of arimoclomol
Full NPCCSS score (excluding hearing domains) at 12 months, Mean ([1]; arimoclomol group n=25): 1.2
Full NPCCSS score (excluding hearing domains) at 12 months, Median ([1]; arimoclomol group n=25): 1.0
Tolerability ([2]; 12-month placebo-controlled trial): well tolerated
Number of patients with increase in serum creatinine level over 1.5 times baseline ([2]; arimoclomol group): Six
Number of patients with serum creatinine level over twice baseline ([2]; arimoclomol group): two
Patients with serious TEAEs ([2]; arimoclomol group 5/34): 14.7%
Patients with vomiting (most common TEAE) ([2]; arimoclomol group 8/34): 23.5%
Upper respiratory tract infection and decreased weight, frequency versus placebo ([2]; double-blind phase): occurred more frequently
Patients with TEAEs (adverse event incidence) ([2]; double-blind phase, 12 months, arimoclomol group 30/34): 88.2%
Changes in vital signs, electrocardiograms, or other laboratory values ([2]; during the trial): no significant changes
Patients with TEAEs that led to trial drug discontinuation ([2]; three patients, four TEAEs (urticaria x2, angioedema, increased blood creatinine)): 8.8%
Adverse events incidence ([3]; M12-24): 87.8%
Adverse events incidence ([3]; M24-36): 85.3%
Safety and tolerability ([3]; over 24 months): safe and well-tolerated
Tolerability ([3]; over 36 months): well tolerated
NPC-cdb score change from baseline to 12 months, LS mean ([4]; arimoclomol group): 1.85
NPC-cdb score change from baseline to 12 months, Arimoclomol vs placebo: Difference [4]: −3.03
NPC-cdb score change from baseline to 12 months, Arimoclomol vs placebo: Difference ([4]; listed as arimoclomol): numerically in favor of arimoclomol
Blood-brain barrier penetration [5]: crosses the blood—brain barrier
Responders on CGI-I at 12 months, Arimoclomol vs placebo: Difference ([6]; p=1.0000): 2.6%
Responders on CGI-I at 12 months, % ([6]; responder = stable or improved, arimoclomol group): (58.8) %
Change in 5-domain NPCCSS score from baseline at 12 months, mean change ([7]; individuals aged ≥4 years, arimoclomol group n=30 (24 at 12 months)): 0.44
Change in 5-domain NPCCSS score from baseline at 12 months, Arimoclomol vs placebo: Difference ([7]; individuals aged ≥4 years, p=0.0190): −1.75
Relative reduction in annual disease progression ([7]; individuals aged ≥4 years, vs placebo): 80%
Change in 5-domain NPCCSS score from baseline at 12 months, mean change ([7]; individuals not receiving miglustat, arimoclomol group n=8 (3 at 12 months)): 4.2
Change in 5-domain NPCCSS score from baseline at 12 months, Arimoclomol vs placebo: Difference ([7]; individuals not receiving miglustat, p=0.2835): 2.21
Change in 5-domain NPCCSS score from baseline at 12 months, mean change ([7]; individuals receiving miglustat, arimoclomol group n=26 (22 at 12 months)): −0.01
Change in 5-domain NPCCSS score from baseline at 12 months, Arimoclomol vs placebo: Difference ([7]; individuals receiving miglustat, p=0.0074): −2.01
Relative reduction in annual disease progression ([7]; individuals receiving miglustat, vs placebo): 101%
Relative reduction in annual disease progression ([7]; overall population, 5-domain NPCCSS, vs placebo): 63%
Change in 5-domain NPCCSS score from baseline at 12 months, mean change ([7]; overall population, arimoclomol group n=34 (27 at 12 months), 93-372 mg/day by body weight, three times daily): 0.80
Change in 5-domain NPCCSS score from baseline at 12 months, Arimoclomol vs placebo: Difference ([7]; overall population, p=0.0537): −1.34
Responders on 5-domain NPCCSS score at 12 months, Arimoclomol vs placebo: Difference ([7]; p=0.5456): 12.5%
Proportion worsening on 5-domain NPCCSS score at 12 months, Arimoclomol vs placebo: Difference ([7]; p=1.0000): 0.37%
Progression of NPC in prespecified subgroups (MMRM on 5-domain NPCCSS) ([7]; patients >4 years old (n=44) and patients concomitantly receiving miglustat (n=39), p<0.05): slowed progression of NPC
Relative reduction in annual disease progression ([7]; post hoc, baseline ASIS within 0.5 and 2): 93%
Change in 5-domain NPCCSS score, Arimoclomol vs placebo: Difference ([7]; post hoc, baseline ASIS within 0.5 and 2 (n=21), p=0.0536): −2.39
Change in 5-domain NPCCSS score from baseline at 12 months, mean change ([7]; post hoc, baseline ASIS within 0.5 and 2, arimoclomol n=13): 0.19
Relative reduction in annual disease progression ([7]; post hoc, excluding individuals with double functional null mutations): 77%
Change in 5-domain NPCCSS score from baseline at 12 months, mean change ([7]; post hoc, excluding individuals with double functional null mutations, arimoclomol n=31): 0.47
Change in 5-domain NPCCSS score, Arimoclomol vs placebo: Difference ([7]; post hoc, excluding individuals with double functional null mutations, p=0.0242): −1.56
Responders on 5-domain NPCCSS score at 12 months, % ([7]; arimoclomol group n=34): (50.0) %
Responders on 5-domain NPCCSS score at 12 months, % ([7]; arimoclomol group n=34, listed as arimoclomol): 50.0%
Time to worsening on 5-domain NPCCSS score ([7]; time until worsened by 2 points vs baseline, arimoclomol group): 3.68 months
Proportion worsening on 5-domain NPCCSS score at 12 months, % ([7]; worsening by 2 points vs baseline, arimoclomol group n=34): (44.1) %
SARA score change from baseline to 12 months, LS mean ([8]; arimoclomol group): 1.06
SARA score change from baseline to 12 months, Arimoclomol vs placebo: Difference ([8]; p=0.7899): 0.28
